Here are results for two compounds from patent US20250339569A1, “CARBONIC ANHYDRASE IX LIGANDS” (priority 2021, published 2025).

The nature of series [1]: Pharmacokinetic characterization in healthy dogs. It is filed as in vivo, beagle dogs. The note with it: dog; for AUC(0-inf) / Cmax / clearance / half-life / Vd / CL renal: male, beagle, iv; for AUC(0-inf) / Cmax / clearance / half-life / Vd: plasma; for half-life: read-out: terminal half-life (T1/2) (converted); for Vd: read-out: volume of distribution; for CL renal: urine and plasma, read-out: estimated renal clearance. As for the experimental part:
The pharmacokinetics of DPI-4452 after a single intravenous (i.v.) dose was investigated in healthy dogs. […] Plasma and urine samples collected after dosing were analyzed using a LC-HRMS (liquid chromatography coupled with high-resolution mass spectrometry) assay method. Concentration values were used for pharmacokinetic calculations.
DPI 4452 was formulated in 0.1 M HEPES pH 7.0 at the final concentrations of 0.05 and 0.4 mg/mL for dosing at 0.1 and 0.8 mg/kg, respectively. Male beagle dogs (3 animals per dose level; overall 8.9 to 12.4 kg body weight) were administered intravenously (bolus) in a 2 mL/kg dosing volume. Blood samples were collected in K2EDTA tubes at 5 min, 15 min, 30 min, 1 h, 2 h, 4 h, 6 h, 24 h, and urine was collected over 24 hours post dose. The blood samples were kept on wet ice until plasma separation by centrifugation within 60 min after sampling. The plasma samples were transferred into plastic tubes, frozen and stored at −80° C. until analysis.
Plasma and urine samples were analyzed by […] after solid phase extraction, using DPI-4501 as internal standard. Chromatographic separation was run on a Waters Acquity HSS T3 C18 2.1×50 mm, 1.8 μm column. Detection was achieved on a Sciex API6600 TOF mass spectrometer. The lower limit of quantification was 2.00 ng/mL in urine and plasma.
The NCA pharmacokinetic analysis of plasma concentration data was conducted using Phoenix WinNonlin 6.3 software. Nominal doses were used for all animals. The terminal phase half-life (T1/2) was calculated by least-squares regression analysis of the terminal linear part of the log concentration-time curve. The area under the plasma concentration-time curve (AUC) was determined with the linear trapezoidal rule for increasing values and log trapezoidal rule for decreasing values up to the last measurable concentration.

Series [2] can be described thus: Biodistribution study (SPECT/CT) in SK-RC-52 tumor-bearing mice with or without gelofusine. It is filed as in vivo, NMRI nude mice. The note with it: female, NMRI nude, mouse, in vivo, iv, total radioactivity. As for the experimental part:
(§1) The effect on tumor uptake of prior injection of gelofusine for kidney protection was investigated in mice bearing the SK-RC-52 tumor. Biodistribution was evaluated using in vivo SPECT/CT imaging. Prior to the in vivo study the compounds (ligands) were initially radiolabeled with In-111 and the stability of radiolabeled compounds was evaluated in buffer at three different timepoints.
(§2) The study was performed in female NMRI nude mice (approximately 6 weeks of age) from Janvier Labs, France, housed up to 5 mice per cage.
(§3) The column was washed with 2 mL water, and then the final product was eluted from the column in EtOH solution (50%) • The sample was formulated in PBS to the final concentration of 150 MBq/mL and 5 nmol/mL.
(§4) SK-RC-52 cells were cultured in RPMI 1640 with GlutaMax-I (Thermo Fisher Scientific #61870044) supplemented with 10% fetal bovine serum+1% penicillin/streptomycin, harvested, washed twice in RPMI 1640 and resuspended at 2×10^7 cells/mL in RPMI 1640. HT-29 cells were cultured in McCoy's 5a Medium Modified (Sigma #M9309). For inoculation of HT-29 cells, cells were harvested, washed twice in PBS and resuspended at 5×10^7 cells/mL in PBS. Cells were kept on ice until inoculation.
(§5) Animals were anaesthetized (isoflurane, 2-4% in ambient air supplemented with 100% 02) prior to tumor inoculation. The tumor cells (100 μL suspension of either SK-RC-52 cells (2×10^6 cells/animal) or HT-29 cells (5×10^6 cells/animal)) were subcutaneously inoculated in the right flank using a 1-mL syringe equipped with a 27 G needle. Tumor growth and animal weight were measured twice per week. Tumor size was measured by caliper and the volume was estimated using the following formula: 0.52×(length×width^2). When tumor sizes reached 150-250 mm^3, animals were randomized into groups (n=3) of similar average tumor volume and body weight.
(§6) Animals were injected intravenously with In-111-labeled compounds (single bolus, 22.3-31.2 MBq, ˜1 nmol ligand, injection volume: 100 μL) in the lateral tail vein using a 29 G syringe.
(§7) CT was performed with helical scan, 300 ms exposure, reconstruction resolution of 250 μm. SPECT was performed with multi-pinhole scan and a 30 s frame time. For the quantification of the radioactivity uptake, regions of interests (ROIs) were drawn over the tumor, kidney, liver, and heart (estimate of blood) identified on the images. Uptake was expressed as percent of injected dose per gram tissue (% ID/g).

Series [3] has as its system SK-RC-52 tumor. The description is as above. The class given is in vivo, NMRI nude mice. As to conditions: SK-RC-52, In-111-labeled; for % remaining tumor uptake at 24 h p.i.: Mean ± SEM. As for the experimental part: as §1, §2, §3, §4, §5, §6, §7
Series [4] can be described thus: Biodistribution study in healthy dog (SPECT/CT, blood pharmacokinetics, urine excretion). The note with it: in vivo.

Molecules are shown by their SMILES. Like-named read-outs stand apart in the source and are kept apart here.

On to `CC(C)C[C@@H]1NC(=O)[C@H](Cc2cccc(NC(=O)CCCS(N)(=O)=O)c2)NC(=O)[C@H](CC(=O)O)NC(=O)[C@H]2CCCN2C(=O)[C@H](CCC(=O)O)NC(=O)[C@@H](NC(=O)[C@H](CCC(N)=O)NC(=O)CN2CCN(C(=O)CN3CCN(CC(=O)O)CCN(CC(=O)O)CCN(CC(=O)O)CC3)CC2)CSCc2cccc(c2)CSC[C@@H](C(N)=O)NC(=O)[C@H](CO)NC(=O)[C@H](Cc2c[nH]c3ccccc23)NC(=O)[C@H]([C@@H](C)O)NC1=O` [DPI-4452, DOTA-PPAc-Gln-[Cys(3MeBn)-Glu-pro-Asp-Af3(Cpsu)-Leu-Thr-Trp-Ser-Cys]-NH2], for which, in series [1] (i.v. 0.1 mg/kg), the “time up to which plasma concentration was quantifiable” value is “up to 2 h”, the total exposure AUC(0-inf) worked out at 0.133 µg·h/mL, the maximum concentration (Cmax) came out at 0.377 µg/mL and the clearance was 0.762 L/h/kg. Moreover, in series [1] (i.v. 0.1 mg/kg), the half-life was 22.8 min, the Vd worked out at 0.26 L/kg and the CL renal is 0.00206 L/h/kg. Besides, in series [1] (i.v. 0.8 mg/kg), the “time up to which plasma concentration was quantifiable” value is on record as at most 4 h, the AUC(0-inf) is 1.76 µg·h/mL, the highest level (Cmax) was 4.43 µg/mL and the clearance came out at 0.456 L/h/kg. In addition, in series [1] (i.v. 0.8 mg/kg), the half-life was 28.8 min, the Vd was determined as 0.19 L/kg and the CL renal is 0.000684 L/h/kg. Besides, the tissue uptake at 4 h in series [2] (SK-RC-52, In-111-labeled, 4% gelofusine before, Mean ± SEM, read-out: Blood uptake at 4 h p.i.) amounted to 0.03 ± 0.01 %ID/g. Moreover, the tissue uptake at 24 h in series [2] (SK-RC-52, In-111-labeled, 4% gelofusine before, Mean ± SEM, read-out: Kidney uptake at 24 h p.i.) worked out at 0.73 ± 0.2 %ID/g. In series [2] (SK-RC-52, In-111-labeled, 4% gelofusine before, Mean ± SEM, read-out: Liver uptake at 4 h p.i.), the tissue uptake at 4 h was determined as 0.12 ± 0.01 %ID/g. Moreover, the tissue uptake in series [2] (SK-RC-52, In-111-labeled, 4% gelofusine before, Mean ± SEM, read-out: Peak Kidney uptake) was determined as 1.84 ± 0.14 %ID/g. Besides, the tissue uptake at 4 h in series [2] (SK-RC-52, In-111-labeled, no gelofusine, Mean ± SEM, read-out: Blood uptake at 4 h p.i.) was 0.05 ± 0.01 %ID/g. Also, the tissue uptake at 24 h in series [2] (SK-RC-52, In-111-labeled, no gelofusine, Mean ± SEM, read-out: Kidney uptake at 24 h p.i.) turned out to be 0.95 ± 0.05 %ID/g. Also, the tissue uptake at 4 h in series [2] (SK-RC-52, In-111-labeled, no gelofusine, Mean ± SEM, read-out: Liver uptake at 4 h p.i.) came to 0.18 ± 0.04 %ID/g. Moreover, the tissue uptake in series [2] (SK-RC-52 tumor mice, In-111-labeled, 4% gelofusine immediately before, Mean ± SEM, N=3, read-out: Peak Tumor Uptake) was 13.4 ± 0.39 %ID/g. For the same compound, in series [3] (4% gelofusine before), the “Time to peak uptake in tumor” value is given as 4 h and the “% remaining tumor uptake at 24 h p.i.” value is 69.6 ± 6.6%. In addition, in series [3] (no gelofusine), the “Time to peak uptake in tumor” value was determined as 1 h and the “% remaining tumor uptake at 24 h p.i.” value is on record as 73.3 ± 0.8%.
On to `CC(C)C[C@@H]1NC(=O)[C@H](Cc2cccc(NC(=O)CCCS(N)(=O)=O)c2)NC(=O)[C@H](CC(=O)O)NC(=O)[C@H]2CCCN2C(=O)[C@H](CCC(=O)O)NC(=O)[C@@H](NC(=O)[C@H](CCC(N)=O)NC(=O)CN2CCN(C(=O)CN3CCN(CC(=O)O)CCN(CC(=O)O)CCN(CC(=O)O)CC3)CC2)CSCc2cccc(c2)CSC[C@@H](C(N)=O)NC(=O)[C@H](CO)NC(=O)[C@H](Cc2c[nH]c3ccccc23)NC(=O)[C@H]([C@@H](C)O)NC1=O` [[^111In]In-DPI-4452, metal not drawn], for which the half-life stood at 55.6 min in series [4] and 5.43 min in series [4] (iv). The tissue uptake in series [2] (SK-RC-52 model, with gelofusine, 1-2 hours post injection, read-out: peak kidney uptake) was found to be 1.84 ± 0.14 %ID/g; in series [2] (SK-RC-52 tumor, 4% gelofusine immediately before, peak at 4 hours (DPI-4452) or 1 hour (DPI-4501), mean±SEM, read-out: peak tumor uptake), 13.4 ± 0.39 %ID/g; in series [2] (summary over tumor models, read-out: peak tumor uptake, typical (conclusion)), 7 %ID/g. Moreover, the tissue uptake at 24 h stood at 0.73 ± 0.02 %ID/g in series [2] (SK-RC-52 model, with gelofusine, 24 hours post injection, read-out: kidney uptake) and 0.95 ± 0.05 %ID/g in series [2] (SK-RC-52 model, without gelofusine, 24 hours post injection, read-out: kidney uptake).

As usually defined, the AUC(0-inf) is the area under the concentration-time curve extrapolated to infinity. For orientation: Cmax means the highest concentration seen after dosing. A word on the clearance: it is a measure of how efficiently the substance is removed, as volume per time. Lower therefore signals inefficient removal.
